Tested on: C. formosanus workers
Assay: whole plant or invertebrate
Assay type: in vivo, Coptotermes formosanus
Settings: for Consumption (mg) day 8: wood slice
Experimental: Three-chambered transparent plastic containers as described in Example 4 were used to test the effectiveness of 2′-acetonaphthone as a barrier to prevent termites from reaching a food source. Each tested concentration of 2′-acetonaphthone was dissolved in 60 ml ethanol and mixed with 600 g of sand. For a control, 600 g of sand was mixed with 60 ml ethanol. The untreated and treated sand were placed in holding containers, and kept overnight at ambient conditions for solvent evaporation. In each container, sand was mixed with 60 ml DDH2O. Into the middle chamber, 110 g of either treated or untreated sand was gently added, packed, and leveled to clearly see tunnels. Six replicates were used for each concentration and control. Weighed balsa wood slices (0.159 cm×3.5 cm×6.0 cm, Ochroma lagopus Swartz) were placed in one of the two lateral chambers and wetted with 1 ml DDH2O. Into each container, 200 workers and 20 soldiers were released in the opposite lateral chamber from the wood slice. Termites were thus required to cross through the treated sand in the middle chamber to reach the food source. Containers were covered, and incubated in complete darkness at 27.4° C. and 70% RH. If necessary, 1 ml DDH2O was added to the sand and wood slice twice a week to maintain proper moisture. Three separate experiments were conducted using the same technique with different colonies.
In the first experiment, termites from Colony BS were used, and tested concentrations of 2′-acetonaphthone were 0.0, 16.67, 33.33, 50.0, 100.0, and 200.0 mg/kg sand. The number of dead workers was recorded daily to day 6. On day 6, the number of living workers in the releasing chamber was also recorded, and the bottoms of the three-chambered containers were scanned (ScanJet 4C, Hewlett-Packard, Palo Alto, Calif.). The images were printed in actual size, and the tunnel areas measured. After 8 days, the total number of living workers in each container was recorded; and the wood slices were gently cleaned using deionized water with a small brush. The slices were then oven dried at 60° C. for 3 h and reweighed. The difference in weight of the wood slices from the initial weighing was used to calculate food consumption.
The experiment was repeated a third time to further test for molting failures. The protocol was described as above. Five concentrations of 2′-acetonaphthone (4.15, 8.33, 16.67, 33.33, and 66.67 mg/kg sand) were evaluated using termites from colony WB. Tunnels were scanned, printed, and areas measured on days 2, 3, 4 and 7. Percent survival and food consumption were calculated on day 12 as previously described. To evaluate the effect of 2′-acetonaphthone treatments on worker survival, tunnel area and food consumption, an analysis of variance was conducted followed by a least significant difference procedure.

[1] = Coptotermes formosanus, 168 h, read-out: Mortality (%), day 7

CC(=O)c1ccc2ccccc2c1 [2′-acetonaphthone]
Food consumption (mg) day 12 (4.16 mg kg^−1, colony E): 27.1 ± 2.3 b mg
Molting failure (%), day 7 (4.16 mg kg^−1, colony E): 26.7 ± 6.0 a %
Survival (%) day 12 (4.16 mg kg^−1, colony E): 34.2 ± 6.0 a %
Termite (%), workers counted in the releasing chambers on day 5 (4.16 mg kg^−1, colony E): 34.9 ± 2.8 b %
Tunnel area (cm^2), day 12 (4.16 mg kg^−1, colony E): 22.8 ± 4.4 a cm^2
Food consumption (mg) day 12 (4.16 mg/kg, colony WB): 35.0 ± 13.8 a mg
Survival (%) day 12 (4.16 mg/kg, colony WB): 55.8 ± 7.3 a %
Tunnel area (cm^2), day 2 (4.16 mg/kg, colony WB): 3.4 ± 1.6 a cm^2
Tunnel area (cm^2), day 3 (4.16 mg/kg, colony WB): 6.1 ± 2.6 ab cm^2
Tunnel area (cm^2), day 4 (4.16 mg/kg, colony WB): 8.0 ± 2.7 ab cm^2
Tunnel area (cm^2), day 7 (4.16 mg/kg, colony WB): 17.0 ± 4.5 a cm^2
Food consumption (mg) day 12 (8.33 mg kg^−1, colony E): 0.0 ± 0.0 c mg
Molting failure (%), day 7 (8.33 mg kg^−1, colony E): 11.5 ± 1.9 b %
Survival (%) day 12 (8.33 mg kg^−1, colony E): 4.2 ± 1.9 b %
Termite (%), workers counted in the releasing chambers on day 5 (8.33 mg kg^−1, colony E): 77.9 ± 4.5 a %
Tunnel area (cm^2), day 12 (8.33 mg kg^−1, colony E): 2.8 ± 1.9 b cm^2
Food consumption (mg) day 12 (8.33 mg/kg, colony WB): 8.3 ± 3.1 b mg
Survival (%) day 12 (8.33 mg/kg, colony WB): 7.4 ± 3.3 b %
Tunnel area (cm^2), day 2 (8.33 mg/kg, colony WB): 2.3 ± 1.3 a cm^2
Tunnel area (cm^2), day 3 (8.33 mg/kg, colony WB): 3.1 ± 1.2 bc cm^2
Tunnel area (cm^2), day 4 (8.33 mg/kg, colony WB): 3.5 ± 1.3 bc cm^2
Tunnel area (cm^2), day 7 (8.33 mg/kg, colony WB): 4.5 ± 1.8 b cm^2
Food consumption (mg) day 12 (16.67 mg kg^−1, colony E): 0.0 ± 0.0 c mg
Molting failure (%), day 7 (16.67 mg kg^−1, colony E): 13.9 ± 1.2 b %
Survival (%) day 12 (16.67 mg kg^−1, colony E): 0.0 ± 0.0 b %
Termite (%), workers counted in the releasing chambers on day 5 (16.67 mg kg^−1, colony E): 78.6 ± 4.0 a %
Tunnel area (cm^2), day 12 (16.67 mg kg^−1, colony E): 0.0 ± 0.0 b cm^2
Survival (%) day 8 (16.67 mg/kg sand, colony BS): 6.8 ± 6.7 b %
Termite (%) day 6, percent workers in the releasing chambers (16.67 mg/kg sand, colony BS): 39.8 ± 8.8 b %
Tunnel area (cm^2) day 6 (16.67 mg/kg sand, colony BS): 1.4 ± 0.9 b cm^2
Consumption (mg) day 8 (16.67 mg/kg sand, colony BS): 3.3 ± 3.3 b mg
Food consumption (mg) day 12 (16.67 mg/kg, colony WB): 3.3 ± 2.1 b mg
Survival (%) day 12 (16.67 mg/kg, colony WB): 0.0 ± 0.0 b %
Tunnel area (cm^2), day 2 (16.67 mg/kg, colony WB): 0.9 ± 0.4 a cm^2
Tunnel area (cm^2), day 3 (16.67 mg/kg, colony WB): 1.6 ± 1.0 bc cm^2
Tunnel area (cm^2), day 4 (16.67 mg/kg, colony WB): 1.7 ± 1.0 c cm^2
Tunnel area (cm^2), day 7 (16.67 mg/kg, colony WB): 0.7 ± 0.5 b cm^2
Food consumption (mg) day 12 (33.33 mg kg^−1, colony E): 0.0 ± 0.0 c mg
Molting failure (%), day 7 (33.33 mg kg^−1, colony E): 15.9 ± 2.4 b %
Survival (%) day 12 (33.33 mg kg^−1, colony E): 0.0 ± 0.0 b %
Termite (%), workers counted in the releasing chambers on day 5 (33.33 mg kg^−1, colony E): 79.6 ± 2.2 a %
Tunnel area (cm^2), day 12 (33.33 mg kg^−1, colony E): 0.0 ± 0.0 b cm^2
Survival (%) day 8 (33.33 mg/kg sand, colony BS): 19.1 ± 9.1 b %
Termite (%) day 6, percent workers in the releasing chambers (33.33 mg/kg sand, colony BS): 39.8 ± 10.2 b %
Tunnel area (cm^2) day 6 (33.33 mg/kg sand, colony BS): 5.5 ± 2.1 b cm^2
Consumption (mg) day 8 (33.33 mg/kg sand, colony BS): 11.7 ± 8.2 b mg
Food consumption (mg) day 12 (33.33 mg/kg, colony WB): 3.3 ± 2.1 b mg
Survival (%) day 12 (33.33 mg/kg, colony WB): 0.1 ± 0.1 b %
Tunnel area (cm^2), day 2 (33.33 mg/kg, colony WB): 0.0 ± 0.0 a cm^2
Tunnel area (cm^2), day 3 (33.33 mg/kg, colony WB): 0.0 ± 0.0 c cm^2
Tunnel area (cm^2), day 4 (33.33 mg/kg, colony WB): 0.0 ± 0.0 c cm^2
Tunnel area (cm^2), day 7 (33.33 mg/kg, colony WB): 0.0 ± 0.0 b cm^2
Survival (%) day 8 (50.0 mg/kg sand, colony BS): 1.8 ± 1.8 b %
Termite (%) day 6, percent workers in the releasing chambers (50.0 mg/kg sand, colony BS): 31.2 ± 2.8 b %
Tunnel area (cm^2) day 6 (50.0 mg/kg sand, colony BS): 2.5 ± 1.1 b cm^2
Consumption (mg) day 8 (50.0 mg/kg sand, colony BS): 0.0 ± 0.0 b mg
Food consumption (mg) day 12 (66.67 mg/kg, colony WB): 4.2 ± 3.3 b mg
Survival (%) day 12 (66.67 mg/kg, colony WB): 0.0 ± 0.0 b %
Tunnel area (cm^2), day 2 (66.67 mg/kg, colony WB): 0.4 ± 0.2 a cm^2
Tunnel area (cm^2), day 3 (66.67 mg/kg, colony WB): 0.4 ± 0.2 c cm^2
Tunnel area (cm^2), day 4 (66.67 mg/kg, colony WB): 0.4 ± 0.2 c cm^2
Tunnel area (cm^2), day 7 (66.67 mg/kg, colony WB): 0.4 ± 0.2 b cm^2
Survival (%) day 8 (100.0 mg/kg sand, colony BS): 0.0 ± 0.0 b %
Termite (%) day 6, percent workers in the releasing chambers (100.0 mg/kg sand, colony BS): 79.8 ± 8.7 a %
Tunnel area (cm^2) day 6 (100.0 mg/kg sand, colony BS): 3.3 ± 1.6 b cm^2
Consumption (mg) day 8 (100.0 mg/kg sand, colony BS): 0.0 ± 0.0 b mg
Survival (%) day 8 (200.0 mg/kg sand, colony BS): 1.3 ± 1.3 b %
Termite (%) day 6, percent workers in the releasing chambers (200.0 mg/kg sand, colony BS): 81.8 ± 6.0 a %
Tunnel area (cm^2) day 6 (200.0 mg/kg sand, colony BS): 0.0 ± 0.0 b cm^2
Consumption (mg) day 8 (200.0 mg/kg sand, colony BS): 0.0 ± 0.0 b mg
mortality at 4.16 mg/kg [1]: 35.9 ± 4.4%
mortality at 8.33 mg/kg [1]: 71.8 ± 8.8%
mortality at 16.67 mg/kg [1]: 99.5 ± 0.5%
mortality at 33.33 mg/kg [1]: 100%
Food consumption (all treatments 16.67 to 200 mg/kg, control 98.3 mg, day 8): ≤ 11.7 mg
concentration giving significant reduction in tunneling and feeding activity (as low as): 8 mg/kg sand
concentration at which no food was consumed (colony BS, day 8): ≥ 50 mg/kg
concentration at which no termite reached the feeding chamber (colony E): > 8.16 mg/kg
concentration forming an effective barrier (toxic, inhibits tunneling and feeding) (treated sand): ≥ 8.33 mg/kg
